Measurements: patent US20080293777A1, “Weight Loss Treatment” (priority 2007, published 2008)
Structures can show the parent of a compound that is named as a salt.

Columns and labels:
[1] = Weight change in leptin-deficient (ob/ob) mice; type: in vivo; details: for weight change: PO BID for 7 days, FIG. 3
Procedure: To investigate Compound 1's effect on various metabolic disorders including diabetes and obesity, in vivo studies were conducted in the ob/ob obese mouse model and in the db/db diabetic model. The ob/ob mouse is deficient in the hormone leptin, a 16 kDa protein that is secreted by fat cells and plays a key role in regulating energy intake and energy expenditure, including the regulation of appetite and metabolism. […] Compound 1 was tested in these metabolic disease models along with two anti-diabetic drugs that also affect body weight, metformin hydrochloride and rosiglitazone maleate.
Male BKS.Cg-m+/+Leprdb/J (˜5 weeks of age) and B6.V-Lepob/J mice (˜8 weeks of age) were used for in vivo efficacy studies. Mice were housed 4 per cage and acclimated for 10 days prior to the start of the study. […] Mice were weighed each morning just prior to dosing. Mice were fasted overnight between study day 1 and 2 and blood glucose was measured in the morning of day 2 using a glucometer and blood from a tail nick. Food was returned to the mice ad libitum and the mice were again fasted overnight between study day 3 and 4, 5 and 6, and 7 and 8.

[2] = biological target: T1, PTP-1B (wild type, residues 1-298) (Homo sapiens, UniProt P18031); assay: PTP-1B activity assay with pNPP, with or without DTT added afterwards; type: biochemical; details: FIG. 1
T1 construct: PTP-1B (wild type, residues 1-298) was exchanged into DFTN buffer
T1 sequence (P18031 1-298): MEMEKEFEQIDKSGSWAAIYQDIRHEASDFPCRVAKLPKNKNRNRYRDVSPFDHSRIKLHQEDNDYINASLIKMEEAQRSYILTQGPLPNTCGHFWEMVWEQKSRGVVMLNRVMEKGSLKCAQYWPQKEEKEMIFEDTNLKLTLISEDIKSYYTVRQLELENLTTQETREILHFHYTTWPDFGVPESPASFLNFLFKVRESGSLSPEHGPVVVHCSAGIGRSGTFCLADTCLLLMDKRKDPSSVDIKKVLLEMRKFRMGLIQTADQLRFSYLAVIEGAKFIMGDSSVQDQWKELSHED
Procedure: (§1) PTP-1B (wild type, residues 1-298) was exchanged into DFTN buffer (DTT-free, 50 mM Tris, 100 mM NaCl, 1 mM EDTA, pH 7.4) using a NAP-5 column, and the concentration of protein was quantified using the absorbance at 280 nm. Purity of the PTP-1B was evidenced by a single mass peak (mass=34,672 amu in a mass spectrometer).
(§2) To 99 mL solution of 1.0 μM PTP-1B in buffer was added 1 mL of Compound 1 in DMSO […]. After 15 minutes, each Compound 1-treated PTP-1B sample was evaluated by mass spectrometry (QSTAR protein mass spectrometer with Baynesian protein mass deconvolution). Concurrently, two 10 μL aliquots were removed. One aliquot was diluted with 10 μL DFTN buffer while the other aliquot was diluted with 10 μL TN buffer (1 mM DTT, 50 mM Tris, 100 mM NaCl, 1 mM EDTA, pH 7.4). After 15 minutes, the samples were diluted with 90 μL pNPP solution (5.6 mM pNPP in DFTN) and the A405 of the solution was monitored for 5 minutes.

[3] = biological target: T1, PTP-1B (wild type, residues 1-298); assay: Mass spectrometry of PTP-1B treated with Compound 1; type: binding; details: 1 equivalent of Compound 1 for 15 minutes, FIG. 2
Procedure: as §1, §2

[4] = cited from earlier work
[5] = Weight change in db/db mice (mutation mapped to leptin receptor); type: in vivo; details: FIG. 4
Procedure: To investigate Compound 1's effect on various metabolic disorders including diabetes and obesity, in vivo studies were conducted in the ob/ob obese mouse model and in the db/db diabetic model. The ob/ob mouse is deficient in the hormone leptin, a 16 kDa protein that is secreted by fat cells and plays a key role in regulating energy intake and energy expenditure, including the regulation of appetite and metabolism. Leptin-deficient mice are severely obese and develop diabetes but revert to normal weight upon leptin administration. In the second model, the mice have a genetic mutation mapped to the leptin receptor (db/db) and at the time of the experiment were moderately overweight. Compound 1 was tested in these metabolic disease models along with two anti-diabetic drugs that also affect body weight, metformin hydrochloride and rosiglitazone maleate.
Male BKS.Cg-m+/+Leprdb/J (˜5 weeks of age) and B6.V-Lepob/J mice (˜8 weeks of age) were used for in vivo efficacy studies. Mice were housed 4 per cage and acclimated for 10 days prior to the start of the study. […] Mice were fasted overnight between study day 1 and 2 and blood glucose was measured in the morning of day 2 using a glucometer and blood from a tail nick. […]

Row | relative activity of PTP-1B ([2]; 0-2 equivalents of Compound 1, 15 minutes) | reversibility of covalent inhibition of PTP-1B ([2]; upon addition of a reducing agent such as DTT) | covalent modification of PTP-1B (mass spectrum) [3] | Structure (SMILES) | weight change [1] | difference in weight loss between doses ([1]; 20 mg/kg vs 100 mg/kg Compound 1 dosed orally BID) | cell permeability ([4]; data from clinical trials) | bioavailability of the selenium moiety ([4]; human, in vivo) | oral bioavailability ([4]; humans, clinical trials) | tolerability ([4]; humans, clinical trials) | toxicity ([4]; up to 500 mg/day oral dose in humans) | statistical significance of weight gains [5]
1 | – | – | – | CN(C)C(=N)N=C(N)N [metformin, metformin hydrochloride, reference compound] | promoted weight loss | – | – | – | – | – | – | –
2 | inhibits the activity | reversible | covalently modifies | O=c1c2ccccc2[se]n1-c1ccccc1 [Compound 1, 2-phenyl-1,2-benzisoselenazol-3(2H)-one] | promoted weight loss | No significant difference in weight loss | cell-permeable | not bioavailable | orally bioavailable | well tolerated | no toxicity was observed | –
3 | – | – | – | CN(CCOc1ccc(CC2SC(=O)NC2=O)cc1)c1ccccn1.O=C(O)/C=C\C(=O)O (stereo not shown) [rosiglitazone, rosiglitazone maleate, reference compound] | gained weight | – | – | – | – | – | – | except for the rosiglitazone-treated mice, the weight gains were not statistically significant
